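A five-concentration, 48-hour dose response in 96-well plates underlies each endpoint, interpolated linearly between surrounding concentrations. TGI is the concentration that stops growth completely.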
Assays:
Assay in all cases: NCI-60 cell line screen, 48 h
HCT-15 colon = system: HCT-15 colon
T-47D breast = system: T-47D breast
SNB-75 CNS = system: SNB-75 CNS
SK-OV-3 ovarian = system: SK-OV-3 ovarian
SF-268 CNS = system: SF-268 CNS
EKVX NSCLC = system: EKVX NSCLC
SF-295 CNS = system: SF-295 CNS
ACHN renal = system: ACHN renal
OVCAR-3 ovarian = system: OVCAR-3 ovarian
HT29 colon = system: HT29 colon
UO-31 renal = system: UO-31 renal
OVCAR-8 ovarian = system: OVCAR-8 ovarian
DU-145 prostate = system: DU-145 prostate
HOP-92 NSCLC = system: HOP-92 NSCLC
IGROV1 ovarian = system: IGROV1 ovarian
MALME-3M melanoma = system: MALME-3M melanoma
MDA-N = system: MDA-N
M14 melanoma = system: M14 melanoma
OVCAR-4 ovarian = system: OVCAR-4 ovarian
786-0 renal = system: 786-0 renal
SK-MEL-28 melanoma = system: SK-MEL-28 melanoma
CAKI-1 renal = system: CAKI-1 renal
A498 renal = system: A498 renal
LOX IMVI melanoma = system: LOX IMVI melanoma
NCI/ADR-RES ovarian = system: NCI/ADR-RES ovarian
RXF 393 renal = system: RXF 393 renal
SK-MEL-5 melanoma = system: SK-MEL-5 melanoma
SN12C renal = system: SN12C renal
CCRF-CEM leukemia = system: CCRF-CEM leukemia
MDA-MB-435 = system: MDA-MB-435
UACC-257 melanoma = system: UACC-257 melanoma
PC-3 prostate = system: PC-3 prostate
NCI-H460 lung = system: NCI-H460 lung
SF-539 CNS = system: SF-539 CNS
SR leukemia = system: SR leukemia
SW-620 colon = system: SW-620 colon
HL-60(TB) leukemia = system: HL-60(TB) leukemia
RPMI-8226 leukemia = system: RPMI-8226 leukemia
TK-10 renal = system: TK-10 renal
KM12 colon = system: KM12 colon
UACC-62 melanoma = system: UACC-62 melanoma
NCI-H23 lung = system: NCI-H23 lung
A549 NSCLC = system: A549 NSCLC
COLO 205 colon = system: COLO 205 colon
K-562 leukemia = system: K-562 leukemia
NCI-H226 lung = system: NCI-H226 lung
OVCAR-5 ovarian = system: OVCAR-5 ovarian
HCC-2998 colon = system: HCC-2998 colon
SNB-19 CNS = system: SNB-19 CNS
MDA-MB-231 breast = system: MDA-MB-231 breast
HCT-116 colon = system: HCT-116 colon
HS 578T breast = system: HS 578T breast
MOLT-4 leukemia = system: MOLT-4 leukemia
NCI-H522 lung = system: NCI-H522 lung
SK-MEL-2 melanoma = system: SK-MEL-2 melanoma
HOP-62 NSCLC = system: HOP-62 NSCLC
U251 CNS = system: U251 CNS
MCF7 breast = system: MCF7 breast

With `O=[N+]([O-])/C=C/c1cn(CCCCCCCCn2cc(/C=C/[N+](=O)[O-])c3ccccc32)c2ccccc12` the TGI (HCT-15 colon) was greater than 10 µM, the TGI (T-47D breast) was greater than 10 µM and the TGI (SNB-75 CNS) was greater than 10 µM. It also gave a TGI (SK-OV-3 ovarian) greater than 10 µM, a TGI (SF-268 CNS) greater than 10 µM and a TGI (EKVX NSCLC) greater than 10 µM. For the same molecule, the TGI (SF-295 CNS) was greater than 10 µM, the TGI (ACHN renal) was greater than 10 µM and the TGI (OVCAR-3 ovarian) was greater than 10 µM. It also gave a TGI (HT29 colon) greater than 10 µM, a TGI (UO-31 renal) greater than 10 µM and a TGI (OVCAR-8 ovarian) greater than 10 µM. For the same molecule, the TGI (DU-145 prostate) was greater than 10 µM, the TGI (HOP-92 NSCLC) was greater than 10 µM and the TGI (IGROV1 ovarian) was greater than 10 µM. The TGI (MALME-3M melanoma) was greater than 10 µM, the TGI (MDA-N) was greater than 10 µM and the TGI (M14 melanoma) was greater than 10 µM. For the same molecule, the TGI (OVCAR-4 ovarian) was greater than 10 µM, the TGI (786-0 renal) was greater than 10 µM and the TGI (SK-MEL-28 melanoma) was greater than 10 µM. It also gave a TGI (CAKI-1 renal) greater than 10 µM, a TGI (A498 renal) greater than 10 µM and a TGI (LOX IMVI melanoma) greater than 10 µM. It also gave a TGI (NCI/ADR-RES ovarian) greater than 10 µM, a TGI (RXF 393 renal) greater than 10 µM and a TGI (SK-MEL-5 melanoma) greater than 10 µM. For the same molecule, the TGI (SN12C renal) was greater than 10 µM, the TGI (CCRF-CEM leukemia) was greater than 10 µM and the TGI (MDA-MB-435) was greater than 10 µM. For the same molecule, the TGI (UACC-257 melanoma) was greater than 10 µM, the TGI (PC-3 prostate) was greater than 10 µM and the TGI (NCI-H460 lung) was greater than 10 µM. It also gave a TGI (SF-539 CNS) greater than 10 µM, a TGI (SR leukemia) greater than 10 µM and a TGI (SW-620 colon) greater than 10 µM. The TGI (HL-60(TB) leukemia) was greater than 10 µM, the TGI (RPMI-8226 leukemia) was 1.11 µM and the TGI (TK-10 renal) was greater than 10 µM. For the same molecule, the TGI (KM12 colon) was greater than 10 µM, the TGI (UACC-62 melanoma) was greater than 10 µM and the TGI (NCI-H23 lung) was greater than 10 µM. The TGI (A549 NSCLC) was greater than 10 µM, the TGI (COLO 205 colon) was greater than 10 µM and the TGI (K-562 leukemia) was greater than 10 µM. For the same molecule, the TGI (NCI-H226 lung) was greater than 10 µM, the TGI (OVCAR-5 ovarian) was greater than 10 µM and the TGI (HCC-2998 colon) was greater than 10 µM. The TGI (SNB-19 CNS) was greater than 10 µM, the TGI (MDA-MB-231 breast) was greater than 10 µM and the TGI (HCT-116 colon) was 0.396 µM. The TGI (HS 578T breast) was greater than 10 µM, the TGI (MOLT-4 leukemia) was greater than 10 µM and the TGI (NCI-H522 lung) was greater than 10 µM. The TGI (SK-MEL-2 melanoma) was greater than 10 µM and the TGI (HOP-62 NSCLC) was greater than 10 µM.
Work on `N#Cc1nc(-c2ccsc2)oc1N` yielded a TGI (HCT-15 colon) greater than 100 µM, a TGI (SNB-75 CNS) greater than 100 µM and a TGI (SK-OV-3 ovarian) greater than 100 µM. The TGI (SF-268 CNS) was greater than 100 µM, the TGI (EKVX NSCLC) was greater than 100 µM and the TGI (ACHN renal) was greater than 100 µM. For the same molecule, the TGI (HT29 colon) was greater than 100 µM, the TGI (UO-31 renal) was greater than 100 µM and the TGI (OVCAR-8 ovarian) was greater than 100 µM. The TGI (DU-145 prostate) was greater than 100 µM, the TGI (HOP-92 NSCLC) was greater than 100 µM and the TGI (IGROV1 ovarian) was greater than 100 µM. It also gave a TGI (MDA-N) greater than 100 µM, a TGI (M14 melanoma) greater than 100 µM and a TGI (786-0 renal) greater than 100 µM. It also gave a TGI (SK-MEL-28 melanoma) greater than 100 µM, a TGI (CAKI-1 renal) greater than 100 µM and a TGI (A498 renal) greater than 100 µM. For the same molecule, the TGI (LOX IMVI melanoma) was greater than 100 µM, the TGI (RXF 393 renal) was greater than 100 µM and the TGI (U251 CNS) was greater than 100 µM. It also gave a TGI (SK-MEL-5 melanoma) greater than 100 µM, a TGI (MCF7 breast) greater than 100 µM and a TGI (SN12C renal) greater than 100 µM. The TGI (CCRF-CEM leukemia) was greater than 100 µM, the TGI (MDA-MB-435) was greater than 100 µM and the TGI (UACC-257 melanoma) was greater than 100 µM. It also gave a TGI (PC-3 prostate) greater than 100 µM, a TGI (SR leukemia) greater than 100 µM and a TGI (SW-620 colon) greater than 100 µM. It also gave a TGI (HL-60(TB) leukemia) greater than 100 µM, a TGI (RPMI-8226 leukemia) greater than 100 µM and a TGI (TK-10 renal) greater than 100 µM. It also gave a TGI (KM12 colon) greater than 100 µM, a TGI (UACC-62 melanoma) greater than 100 µM and a TGI (A549 NSCLC) greater than 100 µM. The TGI (K-562 leukemia) was greater than 100 µM, the TGI (OVCAR-5 ovarian) was greater than 100 µM and the TGI (SNB-19 CNS) was greater than 100 µM. The TGI (MDA-MB-231 breast) was greater than 100 µM, the TGI (HCT-116 colon) was greater than 100 µM and the TGI (HS 578T breast) was greater than 100 µM. For the same molecule, the TGI (MOLT-4 leukemia) was greater than 100 µM, the TGI (SK-MEL-2 melanoma) was greater than 100 µM and the TGI (HOP-62 NSCLC) was greater than 100 µM.

Reference: PubChem BioAssay (NCI)
